Assay [1] relates to Escherichia coli. As to the kind of experiment: Antimicrobial activity against ceftazidime-resistant Escherichia coli Irk2320 harboring beta-lactamase CTX-M-42 Pro167Thr mutant gene by agar dilution method. The class given is functional.
Assay [2] deals with Escherichia coli. The experiment in a line: Antimicrobial activity against ceftazidime-resistant Escherichia coli Irk2322 harboring beta-lactamase CTX-M-42 Pro167Thr mutant gene by agar dilution method. The assay is classed as functional.
Assay [3] relates to Escherichia coli. As to the kind of experiment: Antimicrobial activity against Escherichia coli AB14156 harboring beta-lactamase CTX-M-42 Pro167Thr mutant gene by agar dilution method. The class given is functional.
In assay [4] the test system is Escherichia coli. As to the kind of experiment: Antimicrobial activity against Escherichia coli EPI300 harboring pCC1 carrying beta-lactamase CTX-M-3 gene by agar dilution method. The class given is functional.
The subject of assay [5] is Escherichia coli. The experiment in a line: Antimicrobial activity against Escherichia coli EPI300 harboring pCC1 carrying beta-lactamase CTX-M-42 Pro167Thr mutant gene by agar dilution method. The assay is classed as functional.
Assay [6] deals with Escherichia coli. As to the kind of experiment: Antimicrobial activity against Escherichia coli Irk1224 type 2 mutant harboring beta-lactamase CTX-M-3 Ser167 mutant gene by agar dilution method. The class given is functional.
The subject of assay [7] is Escherichia coli. The experiment in a line: Antimicrobial activity against Escherichia coli Irk1224 type 3 mutant harboring beta-lactamase CTX-M-3 Lys136 mutant gene by agar dilution method. The class given is functional.
In assay [8] the test system is Escherichia coli. As to the kind of experiment: Antimicrobial activity against Escherichia coli GM2995 harboring plasmid pCC1 carrying beta-lactamase CTX-M-3 gene by agar dilution method. The class given is functional.
The test system of assay [9] is Escherichia coli. As to the kind of experiment: Antimicrobial activity against Escherichia coli GM2995 harboring plasmid pCC1 carrying beta-lactamase CTX-M-3 from by agar dilution method. The assay is classed as functional.
Assay [10] relates to Escherichia coli. As to the kind of experiment: Antimicrobial activity against Escherichia coli GM2995 harboring plasmid pCC1 carrying beta-lactamase CTX-M-3 Ser167 mutant gene by agar dilution method.
Assay [11] concerns Escherichia coli. The experiment in a line: Antimicrobial activity against Escherichia coli Irk1224 type 1 mutant harboring beta-lactamase CTX-M-3 by agar dilution method. The assay is classed as functional.
Assay [12] relates to Escherichia coli. The experiment in a line: Antimicrobial activity against Escherichia coli EPI300 Irk1224 type 1 mutant harboring beta-lactamase CTX-M-3 gene by agar dilution method. The class given is functional.
Assay [13] relates to Escherichia coli. The experiment in a line: Antimicrobial activity against Escherichia coli EPI300 Irk1224 type 2 mutant harboring beta-lactamase CTX-M-3 Ser167 mutant gene by agar dilution method.
The test system of assay [14] is Escherichia coli. As to the kind of experiment: Antimicrobial activity against Escherichia coli EPI300 Irk1224 type 3 mutant harboring CTX-M-3 beta-lactamase Lys136 mutant gene by agar dilution method.
In assay [15] the test system is Escherichia coli. As to the kind of experiment: Antimicrobial activity against Escherichia coli EPI300 harboring GM2995 pCC1 carrying beta-lactamase CTX-M-3 gene by agar dilution method. The class given is functional.
In assay [16] the test system is Escherichia coli. As to the kind of experiment: Antimicrobial activity against Escherichia coli EPI300 harboring GM2995 pCC1 carrying beta-lactamase CTX-M-3 Ser167 mutant gene by agar dilution method.
Assay [17] deals with Escherichia coli. As to the kind of experiment: Antimicrobial activity against Escherichia coli EPI300 harboring GM2995 pCC1-1224 carrying CTX-M-3 beta-lactamase gene from by agar dilution method. The assay is classed as functional.
Assay [18] has as its system Escherichia coli. As to the kind of experiment: Antimicrobial activity against Escherichia coli Irk1224 harboring beta-lactamase CTX-M-3 by agar dilution method. The class given is functional.
Assay [19] has as its system Escherichia coli. As to the kind of experiment: Antimicrobial activity against ceftazidime-resistant Escherichia coli Irk2320 harboring beta-lactamase CTX-M-42 Pro167Thr mutant gene by agar dilution method in presence of beta-lactamase inhibitor clavulanic acid.
In assay [20] the test system is Escherichia coli. The experiment in a line: Antimicrobial activity against ceftazidime-resistant Escherichia coli Irk2322 harboring beta-lactamase CTX-M-42 Pro167Thr mutant gene by agar dilution method in presence of beta-lactamase inhibitor clavulanic acid.
For assay [21], the system named is Escherichia coli. As to the kind of experiment: Antimicrobial activity against Escherichia coli AB14156 harboring beta-lactamase CTX-M-42 Pro167Thr mutant gene by agar dilution method in presence of beta-lactamase inhibitor clavulanic acid.
Assay [22] deals with Escherichia coli. As to the kind of experiment: Antimicrobial activity against Escherichia coli EPI300 harboring pCC1 carrying beta-lactamase CTX-M-3 by agar dilution method in presence of beta-lactamase inhibitor clavulanic acid.
The test system of assay [23] is Escherichia coli. The experiment in a line: Antimicrobial activity against Escherichia coli EPI300 harboring pCC1 carrying beta-lactamase CTX-M-42 Pro167Thr mutant gene by agar dilution method in presence of beta-lactamase inhibitor clavulanic acid.
In assay [24] the test system is Escherichia coli. The experiment in a line: Antimicrobial activity against Escherichia coli EPI300 harboring plasmid pCC1 by agar dilution method in presence of beta-lactamase inhibitor clavulanic acid.
For assay [25], the system named is Escherichia coli. The experiment in a line: Antimicrobial activity against Escherichia coli Irk1224 harboring beta-lactamase CTX-M-3 by agar dilution method in presence of beta-lactamase inhibitor clavulanic acid.
Assay [26] deals with Escherichia coli. As to the kind of experiment: Antimicrobial activity against Escherichia coli EPI300 transformant harboring pCC1 by agar dilution method. The class given is functional.

SMILES strings stand for the structures. Values after ≈ are worked out from the molar mass of the structure shown.

With `CC1(C)S[C@@H]2[C@H](NC(=O)[C@H](N)c3ccccc3)C(=O)N2[C@H]1C(=O)O` [AMPICILLIN], the minimal inhibitory concentration (MIC) with Escherichia coli [1], in the assay on Escherichia coli [2], with Escherichia coli [3], in the assay with Escherichia coli [4], against Escherichia coli [5] and in the assay with Escherichia coli [6] was not below 256 µg/mL each time. Further, the MIC against Escherichia coli [7] is not below 256 µg/mL; against Escherichia coli [8], not below 256 µg/mL; in the assay on Escherichia coli [9], not below 256 µg/mL; in the assay with Escherichia coli [10], 128 µg/mL (≈ 366 µM); against Escherichia coli [11], not below 256 µg/mL; in the assay with Escherichia coli [12], not below 256 µg/mL. Further, the MIC was 128 µg/mL (≈ 366 µM) against Escherichia coli [13]; 32 µg/mL (≈ 91.6 µM) in the assay on Escherichia coli [14]; not below 256 µg/mL in the assay on Escherichia coli [15]; 128 µg/mL (≈ 366 µM) with Escherichia coli [16]; not below 256 µg/mL in the assay on Escherichia coli [17]; not below 256 µg/mL against Escherichia coli [18].

As for `CO/N=C(\C(=O)N[C@@H]1C(=O)N2C(C(=O)O)=C(COC(C)=O)CS[C@H]12)c1csc(N)n1` [CEFOTAXIME], the minimal inhibitory concentration (MIC) with Escherichia coli [19], with Escherichia coli [20], in the assay with Escherichia coli [21], with Escherichia coli [22], in the assay on Escherichia coli [23] and in the assay with Escherichia coli [24] was 4 µg/mL throughout. Also, the MIC with Escherichia coli [6] is 64 µg/mL (≈ 141 µM); in the assay with Escherichia coli [7], 64 µg/mL (≈ 141 µM); in the assay on Escherichia coli [8], 4 µg/mL (≈ 8.78 µM); in the assay with Escherichia coli [9], not below 256 µg/mL; in the assay on Escherichia coli [10] it was 1 µg/mL (≈ 2.2 µM); against Escherichia coli [11], not below 256 µg/mL. Further, the MIC against Escherichia coli [13] worked out at 1 µg/mL (≈ 2.2 µM); in the assay with Escherichia coli [14], 1 µg/mL (≈ 2.2 µM); against Escherichia coli [16], 1 µg/mL (≈ 2.2 µM); in the assay with Escherichia coli [25] it was 4 µg/mL.

`CO/N=C(\C(=O)N[C@@H]1C(=O)N2C(C(=O)[O-])=C(C[N+]3(C)CCCC3)CS[C@H]12)c1csc(N)n1`: the minimum inhibitory concentration (MIC) in the assay with Escherichia coli [1] is 1 µg/mL (≈ 2.08 µM); in the assay with Escherichia coli [2], 1 µg/mL (≈ 2.08 µM); against Escherichia coli [3], 1 µg/mL (≈ 2.08 µM); in the assay with Escherichia coli [4], 0.5 µg/mL (≈ 1.04 µM); against Escherichia coli [5] it was 0.25 µg/mL (≈ 0.52 µM); against Escherichia coli [26], 0.06 µg/mL (≈ 0.125 µM). This molecule had a minimum inhibitory concentration (MIC) in the assay on Escherichia coli [18] of 32 µg/mL (≈ 66.6 µM).

Take `CO/N=C(\C(=O)N[C@@H]1C(=O)N2C(C(=O)O)=C(CSc3nc(=O)c(O)nn3C)CS[C@H]12)c1csc(N)n1` [CEFTRIAXONE]: the MIC in the assay with Escherichia coli [1] was 8 µg/mL (≈ 14.4 µM); in the assay with Escherichia coli [2], 8 µg/mL (≈ 14.4 µM); against Escherichia coli [3] it was 8 µg/mL (≈ 14.4 µM); in the assay on Escherichia coli [4], 4 µg/mL (≈ 7.21 µM); against Escherichia coli [5] it was 1 µg/mL (≈ 1.8 µM); against Escherichia coli [26], 0.06 µg/mL (≈ 0.108 µM). This molecule showed a minimum inhibitory concentration (MIC) in the assay on Escherichia coli [18] not below 256 µg/mL.

In the case of `CC(C)(O/N=C(\C(=O)N[C@@H]1C(=O)N2C(C(=O)[O-])=C(C[n+]3ccccc3)CS[C@H]12)c1csc(N)n1)C(=O)O` [CEFTAZIDIME], the MIC against Escherichia coli [26] came to 0.25 µg/mL (≈ 0.457 µM); in the assay on Escherichia coli [19], 4 µg/mL; with Escherichia coli [20] it was 4 µg/mL; in the assay with Escherichia coli [21], 4 µg/mL; in the assay with Escherichia coli [22], 4 µg/mL; in the assay with Escherichia coli [23], 4 µg/mL. Further, the MIC was 4 µg/mL in the assay with Escherichia coli [24]; not below 256 µg/mL against Escherichia coli [6]; not below 256 µg/mL against Escherichia coli [7]; 1 µg/mL (≈ 1.83 µM) against Escherichia coli [8]; 32 µg/mL (≈ 58.5 µM) in the assay on Escherichia coli [9]; 32 µg/mL (≈ 58.5 µM) against Escherichia coli [10]. Moreover, the minimal inhibitory concentration (MIC) in the assay with Escherichia coli [11] is not below 256 µg/mL; against Escherichia coli [12], 1 µg/mL (≈ 1.83 µM); in the assay on Escherichia coli [13], 16 µg/mL (≈ 29.3 µM); in the assay with Escherichia coli [14], 8 µg/mL (≈ 14.6 µM); in the assay with Escherichia coli [15], 1 µg/mL (≈ 1.83 µM); against Escherichia coli [16], 16 µg/mL (≈ 29.3 µM). The minimum inhibitory concentration (MIC) against Escherichia coli [17] was found to be 1 µg/mL (≈ 1.83 µM); in the assay with Escherichia coli [25] it was 4 µg/mL.

Consider `CC1(C)S[C@@H]2[C@H](NC(=O)[C@H](N)c3ccc(O)cc3)C(=O)N2[C@H]1C(=O)O` [AMOXICILLIN], for which the minimal inhibitory concentration (MIC) came to 16 µg/mL (≈ 43.8 µM) against Escherichia coli [1]; 16 µg/mL (≈ 43.8 µM) against Escherichia coli [2]; 16 µg/mL (≈ 43.8 µM) in the assay with Escherichia coli [3]; 8 µg/mL (≈ 21.9 µM) against Escherichia coli [4]; 8 µg/mL (≈ 21.9 µM) against Escherichia coli [5]; 2 µg/mL (≈ 5.47 µM) against Escherichia coli [26]. The minimal inhibitory concentration (MIC) in the assay on Escherichia coli [19] worked out at 8 µg/mL; with Escherichia coli [20], 8 µg/mL; with Escherichia coli [21], 8 µg/mL; in the assay on Escherichia coli [22], 4 µg/mL; in the assay on Escherichia coli [23], 4 µg/mL; in the assay on Escherichia coli [24] it was 1 µg/mL. The minimal inhibitory concentration (MIC) against Escherichia coli [18] was determined as 32 µg/mL (≈ 87.6 µM); in the assay with Escherichia coli [25] it was 16 µg/mL.
